Laboratory results as given in patent publication US8535897B2, “Assays for non-apoptotic cell death and uses thereof” (The Trustees of Columbia University in the City of New York, priority 2006, dated 2013).
Structures can show the parent of a compound that is named as a salt.

Columns and labels:
[1] = tested on: BJ-TERT/LT/ST/RAS^V12 cells; test: Cell death, viable cells counted using a hemacytometer; assay type: cell-based, human; conditions: 13 μM erastin Al, 23 μM antimycin, 126 μM 2-ME or the combinations
[2] = tested on: BJ-TERT/LT/ST/RAS^V12 cells; test: Suppression of erastin lethality by MEK inhibitors (Trypan Blue); assay type: cell-based, human; conditions: U0126 20 μM, MEK inhibitor I 10 μM, MEK 1/2 inhibitor 50 μM, 48 h
Description: BJ-TERT/LT/ST/RASV12 engineered tumor cells were treated with the indicated concentrations of erastin and each MEK1/2 inhibitor for 24 hours and viability was determined by Trypan Blue exclusion.
Cells grown in 175 cm^2 flasks were reseeded in 6-well format (1.4×10^5 cells/well) and treated with erastin dilutions (5-fold, from 36 uM to 60 nM, with no-drug control, n=2) in the presence of one of the MEK inhibitors U0126 (20 uM), MEK inhibitor I (10 uM), MEK 1/2 inhibitor (50 uM), PD98059 (50 uM), MEK inhibitor II (30 uM), or in the absence of inhibitor. After 48 hours, cells were trypsinized and counted using a Vi-CELL™ Series Cell Viability Analyzer. […] Non-linear regression was used to fit curves to the data points using GraphPad Prism™ software. The bottom of each curve was set to zero.

[3] = tested on: BJ-TERT/LT/ST/RAS^V12 cells; test: Suppression of erastin lethality by iron chelators (Alamar Blue); assay type: cell-based, human; conditions: 100 μM DFOM, 100 μM 1a, 100 μM 2, 10 μM or 1 μM 311, 24 h
Description: BJ-TERT/LT/ST/RAS^V12 cells were treated with erastin and four different iron chelators, desferrioxamine mesylate (DFOM), the compounds 1a and 2 whose structures are shown in FIG. 30, and the compound “311” (311-10 or 311-1) (Green, D. A, et al., Inhibition of Malignant Cell Growth by 311, a novel iron chelator of the pyridoxal isonicotinoyl hydrazone class: Effect on the R2 subunit of ribonucleotide reductase. Clinical Cancer Research, (7): 3574-3579 (2001). Cell killing was measured by Alamar Blue assay.
(a) BJ-TERT/LT/ST/RAS^V12 cells were treated with 9 μM erastin A1 for the indicated length of time, and the number of viable cells determined. (b) 1,000 BJ-TERT/LT/ST/RAS^V12 cells/well in 384-well plates were treated with erastin for 2 d, then alamar blue was added to a final concentration of 10% and the plates were incubated for 16 h. Red fluorescence resulting from reduction of alamar blue was detected on a Victor3 platereader. […] (e) The number of viable cells was quantified under each condition using a hemacytometer. […] BJ-TERT/LT/ST/RAS^V12 (shown in histogram plots, and in line graph as dark diamonds) or BJ-TERT cells (shown in line graph only, light circles) were treated with 4.6-μM erastin A1 and the level of intracellular oxidative species determined. […] ATP levels were measured, viable cells determined by Trypan Blue exclusion and ATP per viable cell determined. […]

BJ-TERT/LT/ST/RASV12 = test: Alamar blue viability assay, engineered tumor cells; assay type: cell-based, human; conditions: for selective lethality / activity in cells: BJ-TERT/LT/ST/RAS^V12 cells vs BJ-TERT cells
Description: Erastin was tested in a dilution series in five engineered cell lines derived from primary BJ fibroblasts. Cells were incubated with erastin for two days at 37° C. with 5% CO2, Alamar blue was added (10% final volume) and fluorescence measured (530 nm ex, 590 nm em). Cell lines harboring oncogenic RAS (triangles, circles and x's) were sensitive to erastin, but isogenic lines lacking oncogenic RAS (squares and diamonds) were resistant. Two different clones of engineered tumor cells (circles and triangles) responded similarly.
(a) BJ-TERT/LT/ST/RAS^V12 cells were treated with 9 μM erastin A1 for the indicated length of time, and the number of viable cells determined. (b) 1,000 BJ-TERT/LT/ST/RAS^V12 cells/well in 384-well plates were treated with erastin for 2 d, then alamar blue was added to a final concentration of 10% and the plates were incubated for 16 h. Red fluorescence resulting from reduction of alamar blue was detected on a Victor3 platereader. The percent growth inhibition is shown; error bars represent one SD. […] (c) TEM images (20,000× magnification) of BJ-TERT/LT/ST/RAS^V12 mitochondria after cells were treated with nothing, erastin (37 μM for 10 h) or staurosporine (STS, 1 μM for 5 h), and phase-contrast photograph of BJ-TERT/LT/ST/RAS^V12 cells 24 h after 9 μM erastin A1 treatment is also shown to indicate that even after cell death, nuclei are intact. (d) Anti-oxidants suppress erastin-induced death. BJ-TERT/LT/ST/RAS^V12 cells were treated as indicated and photographed. (e) The number of viable cells was quantified under each condition using a hemacytometer. (f) Iron chelators suppress erastin-induced cell death. Cells were seeded in 384-well plates (6,000 cells/well) and treated with 2-fold dilution series of erastin in the presence of 100 μM desferrioxamine mesylate (DFOM), 100 μM of iron chelator 1a, 100 μM of iron chelator 2, 10 μM or 1 μM of iron chelator 311. After 24 h, alamar blue was added and cell viability assayed. (g, h) Erastin-induced formation of oxidative species. BJ-TERT/LT/ST/RAS^V12 (shown in histogram plots, and in line graph as dark diamonds) or BJ-TERT cells (shown in line graph only, light circles) were treated with 4.6-μM erastin A1 and the level of intracellular oxidative species determined. (i, j) STS, but not erastin, induces PARP1 cleavage (red bands at top) in BJ-TERT/LT/ST/RAS^V12 cells and in A673, HT1080 and HeLa cells. NS: non-specific band. […] Cells were treated with STS or erastin, separated into mitochondrial and cytosolic fractions, and probed for cytochrome c (lower red band) and total VDAC (middle green band, pan-VDAC antibody). (1) Caspase-3 is not cleaved in response to erastin. Cells were treated as indicated and probed with an anti-caspase-3 antibody that recognizes both the full length and the cleaved, active form (lower band). […] ATP levels were measured, viable cells determined by Trypan Blue exclusion and ATP per viable cell determined. Abbreviations: DMSO, dimethylsulfoxide; BHT, butylated hydroxytoluene; TOC, alpha-tocopherol; ERA, erastin A1; CAR, beta-carotene; STS, staurosprine.
(a) Calu-1 lung carcinoma cells harboring oncogenic KRAS were infected with lentivirus containing shRNAs targeting KRAS or GFP. Sequences of shRNAs are indicated by starting nucleotide (nt) in the KRAS mRNA coding sequence. Cells were treated with erastin and viability measured by Trypan Blue exclusion. (b) Knockdown of KRAS was confirmed by western blot. (c,d) A673 cells harboring oncogenic BRAF were infected with lentiviral shRNAs targeting BRAF exon 5 (c) or the 5′ UTR (d), luciferase (LUC)(c) or GFP (d). Cells were treated with erastin and viability measured using Alamar Blue (c) and Trypan Blue (d). (e) Knockdown of BRAF was confirmed by western blot. […] BJ-TERT/LT/ST/RAS^V12 cells were treated with erastin alone or in with a MEK inhibitor U0126 (20 μM), MEK inhibitor I (10 μM) or MEK 1/2 inhibitor (50 μM). After 48 h, viability was determined using Trypan Blue. […]

VDAC1, VDAC2 and VDAC3 = test: VDAC chemi-proteomic identification (pull-down on immobilized erastin analogs); assay type: binding, human; conditions: BJ-TERT/LT/ST/RAS^V12 cell lysates
Description: Erastin A6, Erastin A3, and erastin B2 were immobilized on solid-phase resins, and proteins that interact with A3 or A6, but not B2 were identified. […] In certain embodiments, wherein BJ-TERT cell lysates were used, a small amount of VDAC1 on the A3 and A6 resins was identified, but none of the VDACs were bound on the B2 resin. Thus, it appears that erastin A3 and A6 more efficiently isolate VDAC2 and VDAC3 compared to erastin B2.
Cultures of BJ-TERT and BJ-TERT/LT/ST/RAS^V12 cells (ten 150 mm plates) were washed with PBS, lysed in 25 mM hydroxyethylpiperazine-N′-2-ethanesulfonic acid (HEPES) pH 7.5, 150 mM NaCl, 1% NP-40, 10 mM MgCl2, 1 mM ethylene-diamine tetra acetate (EDTA), 10% glycerol, 1 mM dithiothreitol (DTT) and protease inhibitor cocktail. Protein concentration was determined using a Bradford colorimetric assay.
Erastin A3 and B2 were dissolved in DMSO at 10 mg/ml. 100 μL of AffiGel-10 was washed and resuspended in 400 μl DMSO. 10 μL of compound and 3 μL of 1:100 dilution of triethylamine in DMSO were added. […] Samples were analyzed using both a 4700 Proteomics Analyzer MALDI-TOF/TOF (TOF/TOF; Applied Biosystems) and a Q Trap (AB/MDS Sciez) and the peptide level data were combined. […]

COc1cc2c(cc1O)CC[C@@H]1[C@@H]2CC[C@]2(C)[C@@H](O)CC[C@@H]12 [2-ME, 2-methoxyestradiol]
Cell death (%) [1]: 66%

N#CC(=C(N)Sc1ccc(N)cc1)c1ccccc1C(F)(F)F [MEK 1/2 inhibitor]
effect of MEK inhibitor on erastin lethality [2]: prevent erastin lethality

N#C/C(=C(/N)Sc1ccccc1N)c1cccc(C(O)c2ccncc2)c1 (centres unmarked) [MEK inhibitor I]
effect of MEK inhibitor on erastin lethality [2]: prevent erastin lethality

N#CC(=C(/N)Sc1ccccc1N)/C(C#N)=C(\N)Sc1ccccc1N [U0126]
effect of MEK inhibitor on erastin lethality [2]: prevent erastin lethality

O=C(N/N=C/c1c(O)ccc2ccccc12)c1ccncc1 [compound 311]
effect of iron chelator on erastin lethality [3]: suppress erastin lethality

CC(=O)N(O)CCCCCNC(=O)CCC(=O)N(O)CCCCCNC(=O)CCC(=O)N(O)CCCCCN [desferrioxamine mesylate]
effect of iron chelator on erastin lethality [3]: suppress erastin lethality

CCOc1ccccc1-n1c(C(C)N2CCN(C(=O)COc3ccc(CN)cc3)CC2)nc2ccccc2c1=O (centres unmarked) [erastin A3]
selective lethality / activity in cells (BJ-TERT/LT/ST/RASV12): retained the ability to kill BJ-TERT/LT/ST/RAS^V12 cells but not BJ-TERT cells | VDAC isoforms identified on the immobilized analog resin (VDAC1, VDAC2 and VDAC3): all three isoforms of the human mitochondrial voltage-dependent anion channels (VDAC1, VDAC2 and VDAC3) were identified

CCOc1ccccc1-n1c(C(C)N2CCN(C(=O)COc3ccc(CN)cc3)CC2)nc2ccccc2c1=O (centres unmarked) [erastin A6]
selective lethality / activity in cells (BJ-TERT/LT/ST/RASV12; listed as ERA-A6): selectively lethal to RASV12-expressing cells | VDAC isoforms identified on the immobilized analog resin (VDAC1, VDAC2 and VDAC3): all three isoforms of the human mitochondrial voltage-dependent anion channels (VDAC1, VDAC2 and VDAC3) were identified

CCOc1ccccc1-n1c(C(C)N2CCN(C(C)=O)CC2)nc2ccccc2c1=O (centres unmarked) [erastin A8]
selective lethality / activity in cells (BJ-TERT/LT/ST/RASV12): inactive

CCOc1ccccc1-n1c(C(C)N2CCN(C(=O)COc3ccc(Cl)cc3)CC2)nc2cc(NC(C)=O)ccc2c1=O (centres unmarked) [erastin A9]
IC50 (BJ-TERT/LT/ST/RASV12; BJELR (BJ-TERT/LT/ST/RAS^V12) cells): 1.9 µM

CC(C)NC(=O)N(CCN1CCN(C(=O)COc2ccc(Cl)cc2)CC1)Cc1ccc(F)cc1 [erastin B1]
selective lethality / activity in cells (BJ-TERT/LT/ST/RASV12): inactive

CC(C)NC(=O)N(CCN1CCN(C(=O)COc2ccc(Cl)cc2)CC1)Cc1ccc(CN)cc1 [erastin B2]
selective lethality / activity in cells (BJ-TERT/LT/ST/RASV12): lacks activity | lethality (no lethality up to) (BJ-TERT/LT/ST/RASV12; BJELR cells): > 50 µM | VDAC isoforms identified on the immobilized analog resin (VDAC1, VDAC2 and VDAC3): only VDAC1

antimycin
Cell death (%) [1]: 51%
